Values of other authors as cited in patent US6700032B1, “Wound care management” (Leatherite Pty Limited, priority 1996, dated 2004).

Details: recommended concentrations

For “2,4,4′-trichloro-2′-hydroxy diphenyl ether [Triclosan]”, the toxicological testing is listed as “safe at recommended concentrations”.
